US11439707B2, “Hypocrellin derivative substituted both in a peri-position and in 2-position by amino, preparation method, and application thereof” (priority 2017, dated 2022)

Tests used:
[1] = absorption spectrum (maximum absorption wavelength, molar extinction coefficient); type: physicochemical
[2] = singlet oxygen efficiency test, reference rose bengal; type: physicochemical

| SMILES | maximum absorption wavelength [1] [nm] | molar extinction coefficient [1] | singlet oxygen yield [2] [%] |
| --- | --- | --- | --- |
| COCCOCCOCCOCCOCCOCCOCCOCCOCCOCCOCCOCCOCCOCCOCCOCCOC(=O)C1CCC(CNc2c3c4c5c(c(OC)c(=O)c6c(NCC7CCC(C(=O)OCCOCCOCCOCCOCCOCCOCCOCCOCCOCCOCCOCCOCCOCCOCCOCCOC)CC7)cc(OC)c(c7c(OC)cc(O)c(c2=O)c74)c65)C(C(C)=O)C(C)=C3)CC1 (stereo not drawn) [HB-13d-PEG16] | 624 | 30,500 M^−1cm^−1 | 33 |
| COc1c2c3c4c(c(NCC(=O)O)c(=O)c5c(NCC(=O)O)cc(OC)c(c6c(OC)cc(O)c(c1=O)c63)c54)C=C(C)C2 [HC-7c] | 630 | 29,500 M^−1cm^−1 | 27 |
| COC(=O)C(CO)Nc1c2c3c4c(c(OC)c(=O)c5c(NC(CO)C(=O)OC)cc(OC)c(c6c(OC)cc(O)c(c1=O)c63)c54)C(C(C)=O)C(C)=C2 (stereo not drawn) [HB-24d] | 621 | 20,500 M^−1cm^−1 | 20 |
| COCCOCCOCCOCCOCCOCCOCCN1C(=O)CN(C(=O)OCCNc2c(O)c3c(=O)cc(OC)c4c5c(OC)cc(=O)c6c(NCCOC(=O)N7CC(=O)N(CCOCCOCCOCCOCCOCCOCCOC)C(=O)C7)c(OC)c7c(c(c2C=C(C)C7C(C)=O)c34)c65)CC1=O (stereo not drawn) [HB-40b-PEG6] | 624 | 31,000 M^−1cm^−1 | 34 |
| COCCOCCOCCOCCOCCOCCOC(=O)C1CCC(Nc2c3c4c5c(c(OC)c(=O)c6c(NC7CCC(C(=O)OCCOCCOCCOCCOCCOCCOC)CC7)cc(OC)c(c7c(OC)cc(O)c(c2=O)c74)c65)C(C(C)=O)C(C)=C3)CC1 (stereo not drawn) [HB-14d-PEG6] | 630 | 31,500 M^−1cm^−1 | 32 |
| COc1c(NCCNCCOCCOCCOCCOCCO)c2c(=O)cc(OC)c3c4c(OC)cc(=O)c5c(O)c(NCCNCCOCCOCCOCCOCCO)c6c(c(c1C(C(C)=O)C(C)=C6)c23)c54 (stereo not drawn) [HB-5b-PEG4] | 625 | 30,500 M^−1cm^−1 | 31 |
| COCCOCCOCCOCCOCCOCCOCCC(=O)N1CCC(CNc2c3c4c5c(c(OC)c(=O)c6c(O)cc(OC)c(c7c(OC)c(Br)c(NCC8CCN(C(=O)CCOCCOCCOCCOCCOCCOCCOC)CC8)c(c2=O)c47)c65)C(C(C)=O)C(C)=C3)CC1 (stereo not drawn) [HB-31c-Br-PEG6] | 631 | 33,000 M^−1cm^−1 | 38 |
| COCCOCCOCCOCCOC(=O)C1CCC(CNc2c3c4c5c(c(OC)c(=O)c6c(O)cc(OC)c(c7c(OC)cc(NCC8CCC(C(=O)OCCOCCOCCOCCOC)CC8)c(c2=O)c74)c65)C(C(C)=O)C(C)=C3)CC1 (stereo not drawn) [HB-13c-PEG4] | 630 | 32,500 M^−1cm^−1 | 38 |
| COc1c(NCCCCCC(=O)O)c2c(=O)cc(OC)c3c4c(OC)cc(=O)c5c(O)c(NCCCCCC(=O)O)c6c(c(c1CC(C)=C6)c23)c54 [HC-9b] | 622 | 27,500 M^−1cm^−1 | 24 |
| COc1c2c3c4c(c(NCC5CCC(C(=O)OCCCCCC[P+](c6ccccc6)(c6ccccc6)c6ccccc6)CC5)c(=O)c5c(NCC6CCC(C(=O)OCCCCCC[P+](c7ccccc7)(c7ccccc7)c7ccccc7)CC6)cc(OC)c(c6c(OC)cc(O)c(c1=O)c63)c54)C=C(C)C2 (stereo not drawn) [HC-30c-C6-PPh3^+] | 632 | 33,500 M^−1cm^−1 | 40 |
| COc1c(NCCOCCO)c2c(=O)cc(OC)c3c4c(OC)cc(=O)c5c(O)c(NCCOCCO)c6c(c(c1CC(C)=C6)c23)c54 [HC-1b] | 624 | 27,000 M^−1cm^−1 | 33 |
| COc1c(NCC2CCC(C(=O)OCCCC[N+](C)(C)C)CC2)c2c(=O)cc(OC)c3c4c(OC)cc(=O)c5c(O)c(NCC6CCC(C(=O)OCCCC[N+](C)(C)C)CC6)c6c(c(c1CC(C)=C6)c23)c54 (stereo not drawn) [HC-13b-C4-N^+] | 624 | 31,500 M^−1cm^−1 | 36 |
| COc1c(NC(CS)C(=O)O)c2c(=O)cc(OC)c3c4c(OC)cc(=O)c5c(O)c(NC(CS)C(=O)O)c6c(c(c1C(C(C)=O)C(C)=C6)c23)c54 (stereo not drawn) [HB-25b] | 629 | 20,500 M^−1cm^−1 | 20 |
| COCCOCCOCCOCCOCCOCCOCCOCCOCCOCCOCCOCCOC(=O)CCCNc1c2c3c4c(c(OC)c(=O)c5c(O)cc(OC)c(c6c(OC)cc(NCCCC(=O)OCCOCCOCCOCCOCCOCCOCCOCCOCCOCCOCCOCCOC)c(c1=O)c63)c54)CC(C)=C2 [HC-8c-PEG12] | 628 | 32,500 M^−1cm^−1 | 38 |
| COc1c(O)c2c(=O)cc(OC)c3c4c(OC)cc(=O)c5c(NCCC6CCC(O)CC6)c(NCCC6CCC(O)CC6)c6c(c(c1C(C(C)=O)C(C)=C6)c23)c54 (stereo not drawn) [HB-18a] | 614 | 24,000 M^−1cm^−1 | 20 |
| COc1c2c3c4c(c(NCCC5CCC(O)CC5)c(=O)c5c(O)cc(OC)c(c6c(OC)cc(NCCC7CCC(O)CC7)c(c1=O)c63)c54)C=C(C)C2C(C)=O (stereo not drawn) [HC-18d] | 622 | 23,500 M^−1cm^−1 | 20 |
| COc1c2c3c4c(c(NCc5cccc[n+]5CCCC(=O)O)c(=O)c5c(O)cc(OC)c(c6c(OC)cc(NCc7cccc[n+]7CCCC(=O)O)c(c1=O)c63)c54)C=C(C)C2C(C)=O (stereo not drawn) [HB-38d-N—COOH] | 626 | 21,000 M^−1cm^−1 | 20 |
| COc1c2c3c4c(c(NC5(CO)CC5)c(=O)c5c(NC6(CO)CC6)cc(OC)c(c6c(OC)cc(O)c(c1=O)c63)c54)C=C(C)C2C(C)=O (stereo not drawn) [HB-35c] | 619 | 32,500 M^−1cm^−1 | 34 |
| COCCOCCOCCOCCOCCOCCOC(=O)C1CCCCC1Nc1c2c3c4c(c(OC)c(=O)c5c(NC6CCCCC6C(=O)OCCOCCOCCOCCOCCOCCOC)cc(OC)c(c6c(OC)cc(O)c(c1=O)c63)c54)C(C(C)=O)C(C)=C2 (stereo not drawn) [HB-16d-PEG6] | 628 | 32,000 M^−1cm^−1 | 33 |
| COCCOCCOCCOCCOCCOCCOCCOCCOCCOCCOCCOCCOCCN1C(=O)CN(C(=O)OCCNc2c3c4c5c(c(OC)c(=O)c6c(NCCOC(=O)N7CC(=O)N(CCOCCOCCOCCOCCOCCOCCOCCOCCOCCOCCOCCOCCOC)C(=O)C7)cc(OC)c(c7c(OC)cc(O)c(c2=O)c74)c65)C(C(C)=O)C(C)=C3)CC1=O (stereo not drawn) [HB-40d-PEG12] | 628 | 30,500 M^−1cm^−1 | 30 |
| COCCOCCNC(=O)C1CCC(CNc2c(NCC3CCC(C(=O)NCCOCCOC)CC3)c3c(=O)cc(OC)c4c5c(OC)cc(=O)c6c(O)c(OC)c7c(c(c2C=C(C)C7C(C)=O)c34)c65)CC1 (stereo not drawn) [HB-13a-NH-PEG1] | 624 | 31,000 M^−1cm^−1 | 32 |
| COc1c(O)c2c(=O)cc(OC)c3c4c(OC)cc(=O)c5c(NCc6cccc[n+]6C)c(NCc6cccc[n+]6C)c6c(c(c1C(C(C)=O)C(C)=C6)c23)c54 (stereo not drawn) [HB-38a-N^+] | 620 | 22,000 M^−1cm^−1 | 18 |
